From patent publication US11306092B2, “Amino indole compounds useful as TLR inhibitors” (BRISTOL-MYERS SQUIBB COMPANY, priority 2017, dated 2022) come the findings set out here.

Holding throughout (format): cell-based
In assay [1] the target is T1, human TLR7 (Homo sapiens, UniProt Q9NYK1).
T1 construct: host or cells: HEK-Blue cells
T1 sequence (Q9NYK1 27-1049): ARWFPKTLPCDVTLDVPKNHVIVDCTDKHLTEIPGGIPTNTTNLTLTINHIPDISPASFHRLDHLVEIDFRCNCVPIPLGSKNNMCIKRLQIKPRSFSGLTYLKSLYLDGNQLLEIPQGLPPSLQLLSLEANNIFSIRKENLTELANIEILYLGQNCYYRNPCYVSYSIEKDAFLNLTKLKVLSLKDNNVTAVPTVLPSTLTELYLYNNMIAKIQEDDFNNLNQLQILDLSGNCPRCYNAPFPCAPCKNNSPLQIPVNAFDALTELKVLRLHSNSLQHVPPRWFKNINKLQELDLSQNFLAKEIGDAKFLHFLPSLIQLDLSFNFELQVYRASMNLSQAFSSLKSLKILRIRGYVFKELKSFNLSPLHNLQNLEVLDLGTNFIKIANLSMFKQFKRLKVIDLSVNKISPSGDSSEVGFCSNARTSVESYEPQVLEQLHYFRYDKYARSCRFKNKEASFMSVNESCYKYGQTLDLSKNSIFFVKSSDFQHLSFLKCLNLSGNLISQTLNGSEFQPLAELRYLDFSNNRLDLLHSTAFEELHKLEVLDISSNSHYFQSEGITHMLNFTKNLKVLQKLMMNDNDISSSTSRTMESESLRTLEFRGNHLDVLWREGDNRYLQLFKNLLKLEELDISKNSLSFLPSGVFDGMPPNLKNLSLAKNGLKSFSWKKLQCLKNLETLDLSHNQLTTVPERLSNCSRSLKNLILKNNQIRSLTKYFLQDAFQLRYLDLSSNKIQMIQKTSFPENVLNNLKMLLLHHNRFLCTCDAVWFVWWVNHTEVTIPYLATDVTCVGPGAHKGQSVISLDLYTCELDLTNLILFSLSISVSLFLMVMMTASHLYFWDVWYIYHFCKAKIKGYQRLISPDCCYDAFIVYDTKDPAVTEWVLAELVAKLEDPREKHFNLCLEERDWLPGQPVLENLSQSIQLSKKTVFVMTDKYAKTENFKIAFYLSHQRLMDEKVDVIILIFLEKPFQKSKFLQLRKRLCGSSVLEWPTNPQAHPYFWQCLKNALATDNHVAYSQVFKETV
Briefly: TLR7 inhibition reporter assay (HEK-Blue SEAP reporter). As to conditions: HEK-Blue cells overexpressing human TLR7; gardiquimod 7.5 μM; 22 hour incubation. A digest of the protocol:
(§1)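 Dose–response from 0.05 nM to 50 μM was run in HEK-Blue human TLR7, TLR8 and TLR9 reporter cells. After 30 min at room temperature with compound, ligand was added (TLR7 gardiquimod 7.5 μM; TLR8 R848 15.9 μM; TLR9 ODN2006 5 nM) and SEAP measured next day, at 22 h.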
In general terms: Reporter assays use an easily measured gene product as a stand-in for the process of interest.

Assay [2] deals with T2, human TLR8 (Homo sapiens, UniProt Q9NR97).
T2 construct: host or cells: HEK-Blue cells
T2 sequence (Q9NR97 27-1041): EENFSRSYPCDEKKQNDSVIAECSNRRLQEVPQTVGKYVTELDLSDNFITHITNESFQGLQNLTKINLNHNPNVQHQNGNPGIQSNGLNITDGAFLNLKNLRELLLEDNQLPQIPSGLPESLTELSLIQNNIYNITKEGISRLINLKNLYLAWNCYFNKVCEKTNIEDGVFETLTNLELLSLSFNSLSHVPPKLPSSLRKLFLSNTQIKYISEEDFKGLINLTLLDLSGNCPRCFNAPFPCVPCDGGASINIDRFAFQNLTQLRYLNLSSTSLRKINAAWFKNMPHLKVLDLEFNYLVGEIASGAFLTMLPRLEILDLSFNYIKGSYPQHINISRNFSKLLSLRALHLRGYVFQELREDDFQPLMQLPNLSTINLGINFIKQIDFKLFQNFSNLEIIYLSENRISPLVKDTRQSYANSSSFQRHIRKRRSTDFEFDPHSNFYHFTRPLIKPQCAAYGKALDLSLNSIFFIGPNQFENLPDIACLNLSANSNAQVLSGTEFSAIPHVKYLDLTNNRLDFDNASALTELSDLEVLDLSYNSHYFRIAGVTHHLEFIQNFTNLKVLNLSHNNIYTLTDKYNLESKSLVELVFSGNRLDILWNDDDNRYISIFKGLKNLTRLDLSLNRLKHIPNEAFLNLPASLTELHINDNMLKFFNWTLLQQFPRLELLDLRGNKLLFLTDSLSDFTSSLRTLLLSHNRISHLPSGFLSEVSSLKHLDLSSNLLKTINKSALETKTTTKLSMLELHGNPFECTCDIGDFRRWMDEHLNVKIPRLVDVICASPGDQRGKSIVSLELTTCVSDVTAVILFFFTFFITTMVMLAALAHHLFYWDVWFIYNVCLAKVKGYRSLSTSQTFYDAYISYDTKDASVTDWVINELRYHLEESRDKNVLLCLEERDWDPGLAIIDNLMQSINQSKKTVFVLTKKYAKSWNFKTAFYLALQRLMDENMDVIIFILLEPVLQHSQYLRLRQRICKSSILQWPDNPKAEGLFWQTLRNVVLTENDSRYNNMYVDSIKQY
Briefly: TLR8 inhibition reporter assay (HEK-Blue SEAP reporter). As to conditions: HEK-Blue cells overexpressing human TLR8; R848 15.9 μM; 22 hour incubation. A digest of the protocol:
as §1

For assay [3], the target named is T3, human TLR9 (Homo sapiens, UniProt Q9NR96).
T3 construct: host or cells: HEK-Blue cells
T3 sequence (Q9NR96 26-1032): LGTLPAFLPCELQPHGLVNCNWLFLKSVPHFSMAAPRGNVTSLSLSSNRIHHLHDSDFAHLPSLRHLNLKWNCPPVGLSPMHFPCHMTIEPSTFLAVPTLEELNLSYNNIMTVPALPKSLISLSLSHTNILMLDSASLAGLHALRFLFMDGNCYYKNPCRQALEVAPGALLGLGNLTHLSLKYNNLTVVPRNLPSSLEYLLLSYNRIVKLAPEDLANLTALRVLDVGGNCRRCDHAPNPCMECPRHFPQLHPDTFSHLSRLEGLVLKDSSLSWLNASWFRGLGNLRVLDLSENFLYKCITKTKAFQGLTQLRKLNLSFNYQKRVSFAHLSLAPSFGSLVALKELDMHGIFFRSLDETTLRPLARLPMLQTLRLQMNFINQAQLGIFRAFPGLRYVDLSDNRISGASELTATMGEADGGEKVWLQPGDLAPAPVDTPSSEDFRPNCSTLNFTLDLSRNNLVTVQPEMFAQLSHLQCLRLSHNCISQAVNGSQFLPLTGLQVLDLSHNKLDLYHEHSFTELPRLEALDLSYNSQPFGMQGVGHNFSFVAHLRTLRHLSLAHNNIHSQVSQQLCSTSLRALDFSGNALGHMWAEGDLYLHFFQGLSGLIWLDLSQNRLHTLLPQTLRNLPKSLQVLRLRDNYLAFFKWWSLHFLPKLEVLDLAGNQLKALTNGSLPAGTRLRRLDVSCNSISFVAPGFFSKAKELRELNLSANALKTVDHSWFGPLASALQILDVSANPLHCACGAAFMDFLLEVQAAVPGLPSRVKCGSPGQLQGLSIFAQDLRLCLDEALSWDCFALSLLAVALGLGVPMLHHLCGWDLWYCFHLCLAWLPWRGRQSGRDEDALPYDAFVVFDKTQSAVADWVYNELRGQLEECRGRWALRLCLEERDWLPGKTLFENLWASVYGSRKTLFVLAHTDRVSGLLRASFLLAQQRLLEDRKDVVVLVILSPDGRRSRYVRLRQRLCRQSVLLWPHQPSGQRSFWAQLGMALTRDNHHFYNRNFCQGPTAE
Briefly: TLR9 inhibition reporter assay (HEK-Blue SEAP reporter). To be noted: HEK-Blue cells overexpressing human TLR9; ODN2006 5 nM; 22 hour incubation. A digest of the protocol:
as §1

For orientation: IC50 means the concentration at which inhibition is half-maximal. Lower therefore signals greater potency. Consider `CCc1c(-c2ccc(OC)c(OC)c2)[nH]c2ccc(N3CCN(C4CCN(C(C)C)CC4)CC3)cc12` [Example 169, 2-(3,4-dimethoxyphenyl)-3-ethyl-5-(4-(1-isopropylpiperidin-4-yl)piperazin-1-yl)-1H-indole], for which the IC50 in assay [1] was determined as 61 nM; in assay [2] it was 10 nM; in assay [3], 442 nM.
For `COc1ccc(-c2[nH]c3ccc(N4CCN(C5CCN(CC(C)C)CC5)CC4)cc3c2C)cc1OC` [Example 170, 2-(3,4-dimethoxyphenyl)-5-(4-(1-isobutylpiperidin-4-yl)piperazin-1-yl)-3-methyl-1H-indole] the same measures were 19100 nM, 48400 nM and 465 nM.
Turning to `COc1ccc(-c2[nH]c3ccc(N4CCN(C5CC(C)(C)NC(C)(C)C5)CC4)cc3c2C)cc1OC` [Example 171, 2-(3,4-dimethoxyphenyl)-3-methyl-5-(4-(2,2,6,6-tetramethylpiperidin-4-yl)piperazin-1-yl)-1H-indole], the IC50 in assay [1] was 8990 nM; in assay [2], 32200 nM; in assay [3] it was 379 nM.
Taken in the same sequence, the figures for `CCc1c(-c2ccc(OC)c(OC)c2)[nH]c2ccc(N3CCN(C4CCN(C)CC4)CC3(C)C)cc12` [Example 172, 2-(3,4-dimethoxyphenyl)-5-(2,2-dimethyl-4-(1-methylpiperidin-4-yl)piperazin-1-yl)-3-ethyl-1H-indole] were 96 nM, 131 nM and 478 nM.
For `CCc1c(-c2cc(OC)nc(OC)c2)[nH]c2ccc(N3CCN(C4CCN(C(C)C)CC4)CC3)cc12` [Example 173, 2-(2,6-dimethoxypyridin-4-yl)-3-ethyl-5-(4-(1-isopropylpiperidin-4-yl)piperazin-1-yl)-1H-indole] the same measures were 59 nM, 9.8 nM and 673 nM.
Taken in the same sequence, the figures for `Cc1cc2[nH]c(-c3ccnc4[nH]ncc34)c(C(C)C)c2cc1N1CCN(C2CCN(C(C)C)CC2)CC1` [Example 175, 4-(3-isopropyl-5-(4-(1-isopropylpiperidin-4-yl)piperazin-1-yl)-6-methyl-1H-indol-2-yl)-1H-pyrazolo[3,4-b]pyridine] were 7.5 nM, 11 nM and 261 nM.
`CCc1c(-c2ccc(OC)c(OC)c2)[nH]c2ccc(N3CCN(C4CC(C)(C)NC(C)(C)C4)CC3)cc12` [Example 176, 2-(3,4-dimethoxyphenyl)-3-ethyl-5-(4-(2,2,6,6-tetramethylpiperidin-4-yl)piperazin-1-yl)-1H-indole]: the IC50 in assay [1] is 68 nM; in assay [2] it was 28 nM; in assay [3], 866 nM.
For `CCc1c(-c2ccc(OC)c(OC)c2)[nH]c2ccc(N3CCN(C4CCN(CC(C)C)CC4)CC3)cc12` [Example 177, 2-(3,4-dimethoxyphenyl)-3-ethyl-5-(4-(1-isobutylpiperidin-4-yl)piperazin-1-yl)-1H-indole] the same measures were 166 nM, 11 nM and 1540 nM.
In the case of `CCc1c(-c2ccc(OC)c(OC)c2)[nH]c2ccc(N3CCC4(CCN(C)CC4)CC3)cc12` [Example 181, 3-(2-(3,4-dimethoxyphenyl)-3-ethyl-1H-indol-5-yl)-9-methyl-3,9-diazaspiro[5.5]undecane], the IC50 in assay [1] stood at 54 nM; in assay [2] it was 74 nM; in assay [3], 517 nM.
As to `CCc1c(-c2ccc(OC)c(OC)c2)[nH]c2ccc(N3CCC4(CC3)CCN(C(C)C)CC4)cc12` [Example 183, 3-(2-(3,4-dimethoxyphenyl)-3-ethyl-1H-indol-5-yl)-9-isopropyl-3,9-diazaspiro[5.5]undecane], the figures for the IC50 in assay [1], in assay [2] and in assay [3] were 95 nM, 59 nM and 672 nM, respectively.
Turning to `CCc1c(-c2ccnc3[nH]ncc23)[nH]c2ccc(N3CCC(OC4CCN(C(C)C)CC4)CC3)cc12` [Example 185, 4-(3-ethyl-5-(4-((1-isopropylpiperidin-4-yl)oxy)piperidin-1-yl)-1H-indol-2-yl)-1H-pyrazolo[3,4-b]pyridine], the IC50 was determined as 15000 nM in assay [1], 18600 nM in assay [2] and 1410 nM in assay [3].
Taken in the same sequence, the figures for `CCc1c(-c2ccc(OC)c(OC)c2)[nH]c2cc(C)c(N3CCC4(CC3)CCN(C(C)C)CC4)cc12` [Example 186, 3-(2-(3,4-dimethoxyphenyl)-3-ethyl-6-methyl-1H-indol-5-yl)-9-isopropyl-3,9-diazaspiro[5.5]undecane] were 1210 nM, 1590 nM and 2850 nM.
Taken in the same sequence, the figures for `COc1ccc(-c2[nH]c3ccc(N4CCC(OC5CCN(C)CC5)CC4)cc3c2C(C)C)cc1OC` [Example 187, 2-(3,4-dimethoxyphenyl)-3-isopropyl-5-(4-((1-methylpiperidin-4-yl)oxy)piperidin-1-yl)-1H-indole] were 83 nM, 167 nM and 1450 nM.
